The source of these data is ChEMBL document CHEMBL1201862, “PubChem BioAssay data set” (2004).

What all share (assay): NCI anticancer screen, dose series, 48 h
In experiment [1] the test system is T47D.
The subject of experiment [2] is Hs-578T.
The test system of experiment [3] is 786-0.
Experiment [4] has as its system DMS-114.
Experiment [5] deals with KM-20L2.
The subject of experiment [6] is RXF 631.
For experiment [7], the system named is LXFL 529.
Experiment [8] has as its system HOP-18.
In experiment [9] the test system is XF498.

Molecules are shown by their SMILES.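 Results reflect a 48-hour exposure of cells in 96-well plates to compound at five concentrations. GI50 marks 50% less growth.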 Activity calls are given as the source filed them. Rule as the data show it: active = GI50 up to about 1.1 µM and inactive = higher.

For the molecule `Cc1ccc(S(=O)(=O)NNC2Oc3cc4c(cc3C(c3ccccc3O)C2C)OCO4)cc1` (stereo not drawn), the values for the GI50 in [1] and in experiment [2] were 12 µM (inactive) and 10.9 µM (inactive), respectively.

Turning to `CC(=O)NC1CC(C(C)(C)NC(C)=O)CC=C1C` (stereo not drawn), the GI50 in experiment [1] and in [3] was > 100 µM (inactive) in each case.

For `O=C(CCC(=O)Nc1ccc(Cl)c(Cl)c1)CC(=O)c1ccc(Br)cc1`, the GI50 is > 100 µM (inactive) in experiment [4]; > 100 µM (inactive) in [5]; > 100 µM (inactive) in experiment [6]; 61.8 µM (inactive) in experiment [7]; > 100 µM (inactive) in [3]; > 100 µM (inactive) in experiment [8]. In addition, the GI50 in experiment [9] is > 100 µM (inactive).

Take `O=C1C(=CNC(=S)c2ccccc2)C(=O)c2ccccc21`: the GI50 in experiment [1] is 60.1 µM (inactive); in experiment [2] it was 54 µM (inactive); in experiment [3] it was 27.5 µM (inactive).

`O=C1C=CC2(O[C@@H](Cc3ccccc3)[C@H](Cc3ccccc3)O2)C(SC(=O)c2ccccc2)C1` (stereo partly drawn): the GI50 in experiment [1] was 0.764 µM (active); in experiment [2], 1.38 µM (inactive); in experiment [3], 0.152 µM (active).

As to `CCOc1cc2c(cc1O)C(O)C[C@@H]1[C@@H]2CC[C@]2(C)[C@@H](O)CC[C@@H]12` (stereo partly drawn), the GI50 in [2] is 0.46 µM (active); in experiment [3] it was 0.324 µM (active).

On to `O=C(c1ccccc1)[C@@H]1C[C@H](Sc2ccccc2)c2cc(Cl)ccc2N1`, for which the GI50 in experiment [4] was 21.1 µM (inactive); in experiment [5], 26.9 µM (inactive); in experiment [6], 28.1 µM (inactive); in [7], 24 µM (inactive); in experiment [3], 18.2 µM (inactive); in [8], > 100 µM (inactive). Also, the GI50 in [9] was 18.9 µM (inactive).

`O=C1N[C@@H]([C@H](CCCCCO)OC(=O)c2ccccc2)CO1`: the GI50 in experiment [1], in experiment [2] and in experiment [3] was > 100 µM (inactive) in each case.

For `CC(=O)O[C@H]1[C@@H](OC(C)=O)C(C)(C)/C=C/[C@H](C)C(=O)[C@@]2(OC(C)=O)C[C@@](C)(OC(C)=O)[C@H](OC(C)=O)[C@@H]2[C@H]2OC(=O)CC[C@@]2(OC(=O)c2ccccc2)[C@@H]1OCC(C)C`, the GI50 in experiment [1] is 58.5 µM (inactive); in experiment [2], 11.2 µM (inactive).

On to `CCCCCCCCCCCCCCCCOCC(COP(=O)([O-])OCC[N+](C)(C)C)OCCCCCCCCCCCCCCCC` (stereo not drawn), for which the GI50 in [4], in [5], in experiment [8] and in experiment [9] was > 100 µM (inactive) each time.

As for `COc1cc2c(c(OC)c1OC)-c1[nH]ncc1CC2`, the GI50 in experiment [4], in experiment [5], in experiment [7], in experiment [3], in [8] and in experiment [9] was > 100 µM (inactive) each time.

Consider `CC(C)C1CN(C(=O)OCc2ccccc2)C2N1C(=O)C2(C)OCc1ccccc1` (stereo not drawn), for which the GI50 is 31.3 µM (inactive) in [4]; 43.9 µM (inactive) in [5]; 40.6 µM (inactive) in experiment [6]; 28.7 µM (inactive) in experiment [7]; 49.3 µM (inactive) in [3]; 11.7 µM (inactive) in experiment [9].

Turning to `CC12Nc3ccccc3N1C(=O)c1ccccc12` (stereo not drawn), the GI50 in experiment [1], in [2] and in experiment [3] was > 100 µM (inactive) in each case.

With `Nc1c(C(=O)Nc2ccc(C3=NCCN3)cc2)cccc1C(=O)Nc1ccc(C2=NCCN2)cc1`, the GI50 in experiment [4], in [5], in [8] and in experiment [9] was > 100 µM (inactive) each time.

Consider `Cn1c(=O)ccc2c(=O)c3ccccc3oc21`, for which the GI50 in experiment [1] and in [2] was > 100 µM (inactive) throughout.

On to `CN(c1ccccc1)c1c(-c2ccccc2)c(=O)oc2c1ccc1occc12`, for which the GI50 in experiment [4] and in [8] was > 100 µM (inactive) each time.

As to `O=C(NN1C(=O)C(Cl)C1c1cccc([N+](=O)[O-])c1)c1ccccc1O` (stereo not drawn), the GI50 in [4], in [5], in experiment [7] and in experiment [9] was > 100 µM (inactive) in each case.

On to `C=C1C(=O)OC2/C=C(\C)CC/C=C(/C)CC(OC(=O)/C(=C/CO)CO)C12` (stereo not drawn), for which the GI50 is > 10 µM (inactive) in experiment [1], 39.7 µM (inactive) in experiment [2] and 23.6 µM (inactive) in experiment [3].

Consider `COc1cc2c(cc1Oc1c(Oc3c(O)c(OC)cc4c3C(CC(C)C)N(C)CC4)c(OC)cc3c1C(CC(C)C)N(C)CC3)C(CC(C)C)N(C)CC2` (stereo not drawn), for which the GI50 in experiment [4] is 0.838 µM (active); in experiment [5] it was 0.698 µM (active); in experiment [8] it was 1.67 µM (inactive).

In the case of `COc1ccccc1N1C(Cl)C(=O)C1c1c[nH]c2ccccc12` (stereo not drawn), the GI50 in experiment [4], in [5], in experiment [7] and in [9] was > 100 µM (inactive) throughout.

For the molecule `CC1(C)CC(=O)C2=C(C1)NC1=C(C(=O)CC(C)(C)C1)C2c1ccc([N+](=O)[O-])cc1`, the GI50 in [1], in [2] and in experiment [3] was > 100 µM (inactive) each time.

For the molecule `O=C(Nc1ccc([N+](=O)[O-])cc1[N+](=O)[O-])C(=O)C(C(=O)c1ccc2ccccc2c1)C1OC(=O)c2ccccc21` (stereo not drawn), the GI50 is 17.9 µM (inactive) in experiment [4], 25.1 µM (inactive) in [5], 16.6 µM (inactive) in experiment [6] and 10.5 µM (inactive) in [7].

With `CC1C(NNC(N)=O)Oc2cc3c(cc2C1c1ccccc1O)OCO3` (stereo not drawn), the values for the GI50 in [1] and in [2] were 38.6 µM (inactive) and 25.3 µM (inactive), respectively.

In the case of `Cc1cc2nc3c(C)c4ccccc4c(C)n3c2cc1C`, the GI50 in experiment [1] was > 10 µM (inactive); in experiment [2], 5.56 µM (inactive); in [3], 1.24 µM (inactive).

As for `CC1(C)C(=O)/C=C\C(=O)C(C)(C)C2=CC=C(O2)C(C)(C)C(=O)C(Br)C(Br)C(=O)C(C)(C)C2=CC=C1O2` (stereo not drawn), the GI50 in [4] is > 31.6 µM (inactive); in [5], > 100 µM (inactive); in experiment [1], > 81.7 µM (inactive); in [6], > 100 µM (inactive); in experiment [7], 27.9 µM (inactive); in experiment [2], 30.1 µM (inactive). Moreover, the GI50 in experiment [3] was 39.6 µM (inactive); in experiment [8], > 100 µM (inactive); in experiment [9], > 67.5 µM (inactive).

For the molecule `O=C(/C=C/CC(O)(c1ccccc1)c1ccccc1)Nc1ccccc1Cl`, the GI50 in experiment [4], in [5] and in experiment [7] was > 100 µM (inactive) each time.

Turning to `[C-]#[N+]C(=C\c1ccc(O)cc1)/C(=C/c1ccc(O)cc1)[N+]#[C-]` [XANTOCILLIN], the GI50 in experiment [1] was 3.34 µM (inactive); in experiment [2] it was 0.718 µM (active); in experiment [3], 6.4 µM (inactive).

Consider `CC(=O)Nc1ccc(C2=N/C(=C\c3ccc(Cl)c(Cl)c3)C(=O)O2)cc1`, for which the GI50 in experiment [4] is > 100 µM (inactive); in experiment [5] it was > 100 µM (inactive); in experiment [6] it was > 100 µM (inactive); in experiment [7], > 100 µM (inactive); in experiment [8], > 100 µM (inactive); in experiment [9], 57.5 µM (inactive).

Turning to `O=C1CC2(CCC(O)(c3ccco3)C(C(=O)c3ccco3)C2)C(=O)c2ccccc2N1` (stereo not drawn), the GI50 in experiment [1] is 26.1 µM (inactive); in experiment [2], 55.1 µM (inactive).

Consider `CC(C)(CCCCC(C)(C)NC1=NCCO1)NC1=NCCO1`, for which the GI50 in [1] and in experiment [2] was > 10 µM (inactive) throughout.

Take `COc1ccc(C(c2cc3c(cc2O)OCO3)N2CCOCC2)cc1OC` (stereo not drawn): the GI50 in experiment [1] is 16.9 µM (inactive); in experiment [2], 2.75 µM (inactive); in [3], 11.1 µM (inactive).

As to `CC[C@]1(c2ccc3c(c2)OCO3)C=[N+]([O-])O[C@H](OC2CCCC2(c2ccccc2)c2ccccc2)[C@@H]1OC(C)=O` (stereo partly drawn), the GI50 was 2.09 µM (inactive) in [1], 3.16 µM (inactive) in experiment [2] and 1.77 µM (inactive) in [3].

As to `O=C1C(=O)c2cc([N+](=O)[O-])ccc2-c2ccc([N+](=O)[O-])cc21`, the GI50 in [4] is 0.375 µM (active); in [5], 4.88 µM (inactive); in experiment [8] it was 1.71 µM (inactive); in [9] it was 1.23 µM (inactive).

On to `CCN(CC)c1c(C)c(C(=O)OC)nn1-c1ccccc1`, for which the GI50 in [4] was 38.7 µM (inactive); in [5], > 100 µM (inactive); in experiment [8], > 100 µM (inactive); in experiment [9], > 34.5 µM (inactive).
